Consider three compounds from patent US10010492B2, “Methods and compositions for treating skin to resolve inflammation and screening for actives that stimulate pro-resolution pathways” (ELC Management LLC, priority 2015, dated 2018).

Assay [1] deals with Inflammatory Metabolites (PGE2, LTB4) and Inflammatory Metabolite Marker (5-HETE). As to the kind of experiment: Inflammatory Metabolites and Inflammatory Metabolite Markers in the aggregate, PMA/A23187-stimulated neutrophils, LC-MS/MS. The settings on record: for net decrease in cellular concentration of Inflammatory Metabolites and Inflammatory Metabolite Markers vs control: human neutrophils pre-treated 24 h, then PMA/A23187. It is filed as cell-based, human. As to the method:
(§1) Ingredients were tested to assess the ability to promote Pro-Resolution Pathway Stimulators in human neutrophils. The following Inflammatory Metabolites were measured:
(§2) PGE2 and LTB4. The Inflammatory Metabolite Marker, 5-HETE, was measured. Also measured were the Pro-Resolving Lipid Mediator Markers 15-HETE, 12-HETE, 14-HDOHE, 18-HEPE, and 17-HDOHE. PGE2, LTB4, and 5-HETE are indicators of inflammation. Increases in cellular secretion of PGE2, LTB4, or 5-HETE are seen in response to inflammation precipitating conditions. Active ingredients that cause a reduction in cellular concentration of PGE2, LTB4, or 5-HETE are anti-inflammatory in nature. Cellular secretion of Pro-Resolving Lipid Mediators occurs in the inflammation resolution phase. Active ingredients that stimulate cellular secretion of Pro-Resolving Lipid Mediators (as measured by measuring Pro-Resolving Lipid Mediator Markers) help to promote resolution of inflammation.
(§3) Then, the inflammatory response was initiated by adding an inflammation precipitating ingredient, in particular PMA/[…] which is a mixture of 5-(methylamino)-2-({(2R,3R,6S,8S,9R,11R)-3,9,11-trimethyl-8-[(1S)-1-methyl-2-oxo-2-(1H-pyrrol-2-yl)ethyl]-1,7-dioxaspiro[5.5]undec-2-yl}methyl)-1,3-benzoxazole-4-carboxylic acid and PMA (phorbol myristate acetate), at a concentration of 0.05 μm and 1 μm respectively to each well. After one hour the supernatants were collected and stored at −80° C. until assayed.
(§4) Cell supernatants were assayed for Inflammatory Metabolites (PGE2, LBT4), Inflammatory Metabolite Markers (5-HETE), and Pro-Resolving Lipid Mediator Markers 15-HETE, 12-HETE, 14-HDOHE, 18-HEPE, and 17-HDOHE. More specifically, analysis was performed by extraction using an Oasis HLB 96-well plate (Waters) according to manufacturer's directions.
(§5) Suitable Pro-Resolving Activators are ingredients that show an increase in cellular concentration of Pro-Resolving Lipid Mediator Markers 15-HETE, 12-HETE, 14-HDOHE, 18-HEPE, and 17-HDOHE alone or in combination, when cells exposed to an inflammation precipitating condition either before or after exposure to the active.

For assay [2], the system named is Pro-Resolving Lipid Mediator Markers 15-HETE, 12-HETE, 14-HDOHE, 18-HEPE, and 17-HDOHE. As to the kind of experiment: Pro-Resolving Lipid Mediator Markers in the aggregate, PMA/A23187-stimulated neutrophils, LC-MS/MS. It is filed as cell-based, human. As to the method:
as §1, §2, §3, §4, §5

Turning to `Oc1ccc(C=Cc2cc(O)cc(O)c2)cc1` [resveratrol], the “decrease in Inflammatory Metabolites and Markers in the aggregate vs control” value in assay [1] (0.1 ug/ml) was determined as 45%; in assay [1] (1 ug/ml), 59%; in assay [1] (10 ug/ml), 106%. For the same compound, the entries for the “% change of Pro-Resolving Lipid Mediator Markers in the aggregate compared to control” value in assay [2] (0.1 ug/ml), in assay [2] (1 ug/ml) and in assay [2] (10 ug/ml) were −27%, −16% and −10%, respectively.

With `O=C(O)c1ccccc1O` [salicylic acid], the “net decrease in cellular concentration of Inflammatory Metabolites and Inflammatory Metabolite Markers vs control” value in assay [1] (0.33 μg/ml, aggregate of PGE2, LTB4, 5-HETE) was 29%; in assay [1] (3.3 μg/ml, aggregate), 58%; in assay [1] (33 μg/ml, aggregate), 46%. Moreover, the “change in cellular concentration of Pro-Resolving Lipid Mediators vs control” value in assay [2] (0.33 ug/ml) is “small increase”. Further, the “change in cellular concentration of all Pro-Resolving Lipid Mediator Markers in the aggregate vs control” value in assay [2] (3.3 μg/ml) and in assay [2] (33 μg/ml) was “decreased” each time.

As to resveratrol salicylate, the “decrease in Inflammatory Metabolites and Inflammation Metabolite Markers in the aggregate vs control” value in assay [1] (0.43 ug/ml) was 87%; in assay [1] (4.3 ug/ml), 163%; in assay [1] (43 ug/ml), 257%. Also, the “increase in cellular concentration of Pro-Resolving Lipid Mediator Markers in the aggregate” value in assay [2] (0.43 ug/ml) was “not being as effective”; in assay [2] (4.3 ug/ml), 4%; in assay [2] (43 ug/ml), 37%.
